Data set [1] deals with greenhouse red spider mite (Tetranychus urticae). Briefly: Tetranychus test (OP-resistant/dip treatment). Format: in vivo. Particulars: 1000 ppm, infested bean plants (Phaseolus vulgaris) dipped, OP-resistant mites. How it is done:
Tetranychus Test (OP Resistant/Dip Treatment)
To produce a suitable preparation of active compound, 1 part by weight of active compound is mixed with the stated amount of solvent and the stated amount of emulsifier, and the concentrate is diluted with emulsifier-containing water to the desired concentration.
Bean plants (Phaseolus vulgaris) which are heavily infested by all stages of the greenhouse red spider mite (Tetranychus urticae) are dipped into a solution of the active compound at the desired concentration.
After the desired period of time, the effect in % in determined. 100% means that all spider mites have been killed; 0% means that none of the spider mites have been killed.

For the next data set, the system named is Myzus persicae. Briefly: Myzus test. The format is in vivo. Particulars: 100 ppm, infested cabbage leaves (Brassica oleracea) dipped. As for the experimental part: (§1) To produce a suitable preparation of active compound, 1 part by weight of active compound is mixed with the stated amounts of solvent and of emulsifier, and the concentrate is diluted with emulsifier—containing water to the desired concentration.
Cabbage leaves (Brassica oleracea) which are heavily infested by Myzus persicae are dipped into a preparation of active compound of the desired concentration.
After the desired period of time, the kill in % is determined. 100% means that all aphids have been killed; (0)% means that none of the aphids nave been killed.

The test system of data set [2] is larvae of Phaedon cochleariae. The experiment in a line: Phaedon larvae test. Particulars: 1000 ppm, cabbage leaves (Brassica oleracea) dipped, infested with larvae. Format: in vivo. How it is done: as §1
Cabbage leaves (Brassica oleracea) are treated by being dipped into the preparation of active compound of the desired concentration and are infested with larvae of Phaedon cochleariae while the leaves are still moist.
After the desired period of time, the kill in % is determined. 100% means that all beetle larvae have been killed; 0% means that no beetle larvae have been killed.

The next data set deals with Meloidogyne incognita. The experiment in a line: Meloidogyne incognita test. The format is in vivo. Particulars: 20 ppm; sand with egg-larvae suspension and lettuce seeds; nematocidal activity from gall formation, 100% = no galls. As for the experimental part:
To produce a suitable preparation of active compound, 1 part by weight of active compound is mixed with the stated amounts of solvent and of emulsifier, and the concentrate is diluted with water to the desired concentration.
Containers are filled with sand, preparation of active compound, a suspension of egg-larvae of Meloidogyne incognita and with lettuce seeds. The lettuce seeds germinate and the plants are allowed to grow. Galls are formed on the roots.
After the desird period of time, the nematocidal activity is determined on basis of the formation of galls and is calculated in %.
An activity of 100% means that no galls have been found, an activity of 0% means that the number of the galls at the treated plants corresponds to the number of galls in the untreated control plants.

The test system of data set [3] is Erysiphe graminis f. sp.hordei. The experiment in a line: Erysiphe test (barley)/induction of resistance. Particulars: young barley plants sprayed at 750 g/ha; inoculated 4 days after treatment; evaluated 7 days after inoculation; 100% = no disease. Format: in vivo. How it is done:
Erysiphe Test (Barley)/Induction of Resistance
To produce a suitable preparation of active compound, 1 part by weight of active compound is mixed with the stated amount of solvent, and the concentrate is diluted with water and the stated amount of emulsifier to the desired concentration.
To test for resistance-inducing activity, young barley plants are sprayed with the preparation of active compound at the stated rate of application. 4 days after the treatment, the plants are inoculated with an aqueous spore suspension of Erysiphe graminis f. sp.hordei. The plants are subsequently placed in a greenhouse at 70% relative atmospheric humidity and 18° C.
The test is evaluated 7 days after the inoculation. 0% means an efficacy which corresponds to that of the control while an efficacy of 100% means that no disease is observed.

Data set [4] relates to green rice leaf hopper (Nephotettix cincticeps). The experiment in a line: Nephotettix test. Format: in vivo. Particulars: 1000 ppm, rice seedlings (Oryza sativa) dipped, infested with larvae. How it is done:
To produce a suitable preparation of active compound, 1 part by weight of active compound is mixed with the stated amount of solvent and the stated amount of emulsifier, and the concentrate is diluted with water to the desired concentration.
Rice seedlings (Oryza sativa) are treated by being dipped into the preparation of active compound of the desired concentration and are infested with larvae of the green rice leaf hopper (Nephotettix cincticeps) while the seedlings are still moist.
After the desired period of time, the kill in % is detemruned. 100% means that all leaf hoppers have been killed; 0% means that none of the leaf hoppers have been killed.

Usually melting point stands for the temperature of the solid-liquid transition.

`COC(=O)C1C2C=CC(O2)C1C(=O)OC` (centres unmarked): in data set [1], the “kill in % after 7 days” value came out at 90%.
Take `O=C(O)C1C2C=CC(O2)C1C(=O)O` (centres unmarked): the “Kill in % after 6 days” value in the data set with Myzus persicae amounted to 80%.
As for `O=C(O)C1C2CCC(O2)C1C(=O)O` (centres unmarked), in data set [2], the “kill in % after 7 days” value amounted to 100%.
`CC(CNC(=O)C1C2CCC(O2)C1C(=O)O)c1ccccc1` (centres unmarked): in the data set on Meloidogyne incognita, the kill in % was 100%.
Regarding `Cc1cc(C)c(NC(=O)C2C3CCC(C)(O3)C2C(=O)O)c(C)c1` (centres unmarked), the melting point came to 168 °C.
Turning to `O=C(O)C1C2C=CC(O2)C1C(=O)NCCCc1ccccc1` (centres unmarked), in data set [3], the Efficacy in % is reported as 70%.
Turning to `O=C(O)C1C2C=CC(O2)C1C(=O)Nc1cccc(Cl)c1` (centres unmarked), the Efficacy in % in data set [3] came out at 70%.
On the same count and under the same terms, under `O=C(O)C1C2C=CC(O2)C1C(=O)NCc1cc(Cl)nc(Cl)c1` (centres unmarked) stands 70%; under `CC(C)(CNC(=O)C1C2C=CC(O2)C1C(=O)O)n1cncn1` (centres unmarked), 70%; under `COc1ccccc1NC(=O)C1C2CCC(O2)C1C(=O)O` (centres unmarked), 70%.
As for `O=C(O)C1C2CCC(O2)C1C(=O)NCCc1ccccc1` (centres unmarked), the Efficacy in % in data set [3] was 90%.
The same measure, in the same setting: for `CC(Cc1ccccc1)NC(=O)C1C2CCC(O2)C1C(=O)O` (centres unmarked) the value was 80%.
In the case of `CCOC(=O)C1C2C=CC(O2)C1C(=O)Sc1ccccc1NC(N)=O` (centres unmarked), the “Kill in % after 6 days” value in data set [4] turned out to be 100%.
The same measure, in the same setting: for `O=C(O)[C@@H]1C2CCC(O2)[C@@H]1C(=O)O` the value was 100%.

The record behind these values is US20040053996A1, “Use of oxabicyclo[2.2.1]heptane derivatives as pesticidal agents” (priority 2000, published 2004).
